Source: US9061984B2 (University of Louisville Research Foundation, Inc., priority 2008, dated 2015)
Where two headings read alike, the source gives them in different places.

Tested on: several cell lines (Panel/Cell Line)
Experiment: GI50, TGI and LC50 of compound II-21 for several cell lines (Table 12)

C(=N/Nc1ncnc2sc3c(c12)CCCC3)/c1ccccn1 [II-21]
GI50 (48 h, Leukemia, SR, 48-h exposure): 0.368 µM | GI50 (48 h, Melanoma, M14, 48-h exposure): 0.246 µM | GI50 (48 h, Prostate Cancer, PC-3, 48-h exposure): 0.431 µM | CC50 (48 h, read-out: LC50 (M), Leukemia, SR, 48-h exposure): > 0.0001 M | CC50 (48 h, read-out: LC50 (M), Melanoma, M14, 48-h exposure): 3.34e-05 M | CC50 (48 h, read-out: LC50 (M), Prostate Cancer, PC-3, 48-h exposure): > 0.0001 M | TGI (Breast Cancer, BT-549, 48-h exposure): 28.7 µM | TGI (Breast Cancer, HS 578T, 48-h exposure): 23.9 µM | TGI (Breast Cancer, MCF7, 48-h exposure): 15.3 µM | TGI (Breast Cancer, MDA-MB-231/ATCC, 48-h exposure): 29.7 µM | TGI (Breast Cancer, MDA-MB-468, 48-h exposure): 0.505 µM | TGI (Breast Cancer, T-47D, 48-h exposure): 28 µM | TGI (CNS Cancer, SF-268, 48-h exposure): 15.1 µM | TGI (CNS Cancer, SF-295, 48-h exposure): 12.1 µM | TGI (CNS Cancer, SF-539, 48-h exposure): 3.84 µM | TGI (CNS Cancer, SNB-19, 48-h exposure): 34.1 µM | TGI (CNS Cancer, SNB-75, 48-h exposure): 14.7 µM | TGI (CNS Cancer, U251, 48-h exposure): 12.1 µM | TGI (Colon Cancer, COLO 205, 48-h exposure): 14.7 µM | TGI (Colon Cancer, HCC-2998, 48-h exposure): 22.9 µM | TGI (Colon Cancer, HCT-15, 48-h exposure): 27 µM | TGI (Colon Cancer, HCT-116, 48-h exposure): 14.2 µM | TGI (Colon Cancer, HT29, 48-h exposure): 15.1 µM | TGI (Colon Cancer, KM12, 48-h exposure): 12.7 µM | TGI (Colon Cancer, SW-620, 48-h exposure): 17.9 µM | GI50 (Homo sapiens, 786-0, 48 h, Renal Cancer, 786-0, 48-h exposure): 0.333 µM | CC50 (Homo sapiens, 786-0, 48 h, read-out: LC50 (M), Renal Cancer, 786-0, 48-h exposure): 4.44e-05 M | GI50 (Homo sapiens, A498, 48 h, Renal Cancer, A498, 48-h exposure): 0.428 µM | CC50 (Homo sapiens, A498, 48 h, read-out: LC50 (M), Renal Cancer, A498, 48-h exposure): 3.72e-05 M | GI50 (Homo sapiens, A549, 48 h, Non-Small Cell Lung Cancer, A549/ATCC, 48-h exposure): 0.389 µM | CC50 (Homo sapiens, A549, 48 h, read-out: LC50 (M), Non-Small Cell Lung Cancer, A549/ATCC, 48-h exposure): 7.13e-05 M | GI50 (Homo sapiens, ACHN, 48 h, Renal Cancer, 48-h exposure): 0.313 µM | CC50 (Homo sapiens, ACHN, 48 h, read-out: LC50 (M), Renal Cancer, ACHN, 48-h exposure): > 0.0001 M | GI50 (Homo sapiens, BT-549, 48 h, Breast Cancer, BT-549, 48-h exposure): 0.394 µM | CC50 (Homo sapiens, BT-549, 48 h, read-out: LC50 (M), Breast Cancer, BT-549, 48-h exposure): > 0.0001 M | GI50 (Homo sapiens, CAKI-1, 48 h, Renal Cancer, CAKI-1, 48-h exposure): 0.313 µM | CC50 (Homo sapiens, CAKI-1, 48 h, read-out: LC50 (M), Renal Cancer, CAKI-1, 48-h exposure): > 0.0001 M | GI50 (Homo sapiens, CCRF-CEM, 48 h, Leukemia, 48-h exposure): 0.242 µM | CC50 (Homo sapiens, CCRF-CEM, 48 h, read-out: LC50 (M), Leukemia, CCRF-CEM, 48-h exposure): > 0.0001 M | GI50 (Homo sapiens, COLO 205, 48 h, Colon Cancer, COLO 205, 48-h exposure): 0.315 µM | CC50 (Homo sapiens, COLO 205, 48 h, read-out: LC50 (M), Colon Cancer, COLO 205, 48-h exposure): 5.45e-05 M | GI50 (Homo sapiens, DU-145, 48 h, Prostate Cancer, DU-145, 48-h exposure): 0.41 µM | CC50 (Homo sapiens, DU-145, 48 h, read-out: LC50 (M), Prostate Cancer, DU-145, 48-h exposure): 5.16e-05 M | GI50 (Homo sapiens, EKVX, 48 h, Non-Small Cell Lung Cancer, 48-h exposure): 0.317 µM | CC50 (Homo sapiens, EKVX, 48 h, read-out: LC50 (M), Non-Small Cell Lung Cancer, EKVX, 48-h exposure): > 0.0001 M | GI50 (Homo sapiens, HCC 2998, 48 h, Colon Cancer, HCC-2998, 48-h exposure): 10 µM | CC50 (Homo sapiens, HCC 2998, 48 h, read-out: LC50 (M), Colon Cancer, HCC-2998, 48-h exposure): 5.26e-05 M | GI50 (Homo sapiens, HCT-15, 48 h, Colon Cancer, HCT-15, 48-h exposure): 0.45 µM | CC50 (Homo sapiens, HCT-15, 48 h, read-out: LC50 (M), Colon Cancer, HCT-15, 48-h exposure): > 0.0001 M | GI50 (Homo sapiens, HCT-116, 48 h, Colon Cancer, HCT-116, 48-h exposure): 0.166 µM | CC50 (Homo sapiens, HCT-116, 48 h, read-out: LC50 (M), Colon Cancer, HCT-116, 48-h exposure): 6.74e-05 M | GI50 (Homo sapiens, HL-60, 48 h, Leukemia, HL-60(TB), 48-h exposure): 0.12 µM | CC50 (Homo sapiens, HL-60, 48 h, read-out: LC50 (M), Leukemia, HL-60(TB), 48-h exposure): > 0.0001 M | GI50 (Homo sapiens, HOP-62, 48 h, Non-Small Cell Lung Cancer, HOP-62, 48-h exposure): 0.395 µM | CC50 (Homo sapiens, HOP-62, 48 h, read-out: LC50 (M), Non-Small Cell Lung Cancer, HOP-62, 48-h exposure): > 0.0001 M | GI50 (Homo sapiens, HOP-92, 48 h, Non-Small Cell Lung Cancer, HOP-92, 48-h exposure): 0.417 µM | CC50 (Homo sapiens, HOP-92, 48 h, read-out: LC50 (M), Non-Small Cell Lung Cancer, HOP-92, 48-h exposure): > 0.0001 M | GI50 (Homo sapiens, HT-29, 48 h, Colon Cancer, HT29, 48-h exposure): 0.18 µM | CC50 (Homo sapiens, HT-29, 48 h, read-out: LC50 (M), Colon Cancer, HT29, 48-h exposure): 4.49e-05 M | GI50 (Homo sapiens, Hs-578T, 48 h, Breast Cancer, HS 578T, 48-h exposure): 0.748 µM | CC50 (Homo sapiens, Hs-578T, 48 h, read-out: LC50 (M), Breast Cancer, HS 578T, 48-h exposure): > 0.0001 M | GI50 (Homo sapiens, IGROV-1, 48 h, Ovarian Cancer, IGROV1, 48-h exposure): 0.45 µM | CC50 (Homo sapiens, IGROV-1, 48 h, read-out: LC50 (M), Ovarian Cancer, IGROV1, 48-h exposure): > 0.0001 M | GI50 (Homo sapiens, K562, 48 h, Leukemia, K-562, 48-h exposure): 0.284 µM | CC50 (Homo sapiens, K562, 48 h, read-out: LC50 (M), Leukemia, K-562, 48-h exposure): > 0.0001 M | GI50 (Homo sapiens, KM12, 48 h, Colon Cancer, KM12, 48-h exposure): 0.515 µM | CC50 (Homo sapiens, KM12, 48 h, read-out: LC50 (M), Colon Cancer, KM12, 48-h exposure): 3.81e-05 M | GI50 (Homo sapiens, LOX IMVI, 48 h, Melanoma, 48-h exposure): 0.256 µM | CC50 (Homo sapiens, LOX IMVI, 48 h, read-out: LC50 (M), Melanoma, LOX IMVI, 48-h exposure): 3.48e-05 M | GI50 (Homo sapiens, MCF7, 48 h, Breast Cancer, MCF7, 48-h exposure): 0.336 µM | CC50 (Homo sapiens, MCF7, 48 h, read-out: LC50 (M), Breast Cancer, MCF7, 48-h exposure): 8e-05 M | GI50 (Homo sapiens, MDA-MB-231, 48 h, Breast Cancer, MDA-MB-231/ATCC, 48-h exposure): 0.603 µM | CC50 (Homo sapiens, MDA-MB-231, 48 h, read-out: LC50 (M), Breast Cancer, MDA-MB-231/ATCC, 48-h exposure): > 0.0001 M | GI50 (Homo sapiens, MDA-MB-435, 48 h, Melanoma, MDA-MB-435, 48-h exposure): 0.477 µM | CC50 (Homo sapiens, MDA-MB-435, 48 h, read-out: LC50 (M), Melanoma, MDA-MB-435, 48-h exposure): > 0.0001 M | GI50 (Homo sapiens, MDA-MB-468, 48 h, Breast Cancer, MDA-MB-468, 48-h exposure): 0.2 µM | CC50 (Homo sapiens, MDA-MB-468, 48 h, read-out: LC50 (M), Breast Cancer, MDA-MB-468, 48-h exposure): 4.1e-05 M | GI50 (Homo sapiens, MOLT-4, 48 h, Leukemia, MOLT-4, 48-h exposure): 0.261 µM | CC50 (Homo sapiens, MOLT-4, 48 h, read-out: LC50 (M), Leukemia, MOLT-4, 48-h exposure): > 0.0001 M | GI50 (Homo sapiens, Malme-3M, 48 h, Melanoma, 48-h exposure): 0.275 µM | CC50 (Homo sapiens, Malme-3M, 48 h, read-out: LC50 (M), Melanoma, MALME-3M, 48-h exposure): 5.14e-05 M | GI50 (Homo sapiens, NCI-H23, 48 h, Non-Small Cell Lung Cancer, NCI-H23, 48-h exposure): 0.705 µM | CC50 (Homo sapiens, NCI-H23, 48 h, read-out: LC50 (M), Non-Small Cell Lung Cancer, NCI-H23, 48-h exposure): > 0.0001 M | GI50 (Homo sapiens, NCI-H226, 48 h, Non-Small Cell Lung Cancer, NCI-H226, 48-h exposure): 0.385 µM | CC50 (Homo sapiens, NCI-H226, 48 h, read-out: LC50 (M), Non-Small Cell Lung Cancer, NCI-H226, 48-h exposure): > 0.0001 M | GI50 (Homo sapiens, NCI-H322M, 48 h): 0.216 µM | CC50 (Homo sapiens, NCI-H322M, 48 h, read-out: LC50 (M)): > 0.0001 M | GI50 (Homo sapiens, NCI-H460, 48 h, Non-Small Cell Lung Cancer, NCI-H460, 48-h exposure): 0.304 µM | CC50 (Homo sapiens, NCI-H460, 48 h, read-out: LC50 (M), Non-Small Cell Lung Cancer, NCI-H460, 48-h exposure): 3.11e-05 M
